Measurements as given in ChEMBL document CHEMBL2203141, “Heterologously expressed β-hydroxyl fatty acids from a metagenomic library of a marine sponge” (2012).
In brackets after ≈: the same amount, converted by molar mass. Activity calls are given as the source filed them. The calls are words filed in the database; no cut-off is given here.

Columns and labels:
[1] = test system: Wickerhamomyces anomalus; experiment: Antifungal activity against Pichia anomala by serial two-fold dilution microtiter plate method; type: functional; conditions: Hansenula anomala
[2] = test system: Aspergillus nidulans; experiment: Antifungal activity against Aspergillus nidulans by serial two-fold dilution microtiter plate method; type: functional
[3] = test system: Penicillium roqueforti; experiment: Antifungal activity against Penicillium roqueforti by serial two-fold dilution microtiter plate method; type: functional
[4] = test system: Kluyveromyces marxianus; experiment: Antifungal activity against Kluyveromyces marxianus by serial two-fold dilution microtiter plate method; type: functional
[5] = test system: Aspergillus fumigatus; experiment: Antifungal activity against Aspergillus fumigatus by serial two-fold dilution microtiter plate method; type: functional
[6] = Antifungal activity against […] mucilaginosa by serial two-fold dilution microtiter plate method; type: functional
[7] = Antifungal activity against Penicillium commune by serial two-fold dilution microtiter plate method; type: functional
[8] = test system: Escherichia coli; experiment: Antibacterial activity against Escherichia coli by broth dilution method; type: functional, organism-based
[9] = test system: Bacillus cereus; experiment: Antibacterial activity against Bacillus cereus by broth dilution method; type: functional
[10] = test system: Staphylococcus aureus; experiment: Antibacterial activity against methicillin-resistant Staphylococcus aureus by broth dilution method; type: functional, organism-based
[11] = test system: Candida albicans; experiment: Antifungal activity against Candida albicans by broth dilution; type: functional

SMILES	MIC [1]	MIC [2]	MIC [3]	MIC [4]	MIC [5]	MIC [6]	MIC [7]	Activity [8]	MIC [9]	Activity [10]	MIC [11]
CCCCCCCCCCC[C@@H](O)CC(=O)O	10 µg/mL (≈ 40.9 µM)	10 µg/mL (≈ 40.9 µM)	10 µg/mL (≈ 40.9 µM)	10 µg/mL (≈ 40.9 µM)	10 µg/mL (≈ 40.9 µM)	10 µg/mL (≈ 40.9 µM)	10 µg/mL (≈ 40.9 µM)				
CCCCCCCCCCCCC[C@@H](O)CC(=O)O								inactive	6.25 µg/mL (≈ 22.9 µM)	inactive	12.5 µg/mL (≈ 45.9 µM)
CCCCCCCCC[C@@H](O)CC(=O)O	10 µg/mL (≈ 46.2 µM)	10 µg/mL (≈ 46.2 µM)	10 µg/mL (≈ 46.2 µM)	10 µg/mL (≈ 46.2 µM)	10 µg/mL (≈ 46.2 µM)	10 µg/mL (≈ 46.2 µM)	10 µg/mL (≈ 46.2 µM)				
